# Patent US11684068B2, “Herbicidal compositions and methods of use thereof” (Valent U.S.A. LLC, priority 2018, dated 2023)
# What was measured:
# [1] = Wet sieve test and crystal examination after accelerated aging (long-term storage stability); format: physicochemical
# Protocol: Variations of Composition 1 from Table 1, above, were subjected to extreme temperatures to determine long-term storage stability including the likelihood of large crystals growing that cause clogging of the spray nozzle by performing the wet sieve test. Specifically, these compositions containing various amounts of polyvinyl alcohol and ammonium sulfate were subjected to 2 weeks at 54° C. and 4 weeks at 50° C. accelerated aging. The wet sieve test typically was performed soon after the samples were brought back to room temperature using the following protocol:
# A bottle containing the composition was emptied onto a 100-mesh sieve positioned on top of a receiver. Water was added to the bottle, shaken to rinse, and the rinse solution was poured onto the mesh to wash off the material. The rinsing step was repeated until visible quantity of residue on the mesh remained constant. If necessary, additional, minimum streams of water were introduced by way of a squirt or spray bottle to further clear the mesh. Typically, about 250 milliliters of water was used for about 40 grams of sample. The mesh was then dried to a constant weight and observed under a microscope.
# (§1) Variations of Composition 2 from Table 1, above, were subjected to several conditions to determine long-term storage stability including % wet sieve test residue. Specifically, these compositions contained 0% or 2.8% w/w of polyvinyl alcohol and 0% or 2.8% w/w ammonium sulfate or 0% or 2.8% or 5.6% w/w potassium citrate and were subjected to 2 weeks at 54° C. and 4 weeks at 50° C.
# Variations of Composition 3 from Table 1 above were subjected to several conditions to determine long-term storage stability including % wet sieve test residue. Specifically, these compositions contained 0 or 2.8% w/w of polyvinyl alcohol and 0% or 2.8% w/w ammonium sulfate and were subjected to 2 weeks at 54° C.
# as §1, with “Composition 4” for “Composition 2”, “sulfate” for “sulfate or 0% or 2.8% or 5.6% w/w potassium citrate”, “C.” for “C. and 4 weeks at 50° C.”
# Compositions 5-7 from Table 1, above, were subjected to several conditions to determine long-term storage stability including % wet sieve test residue. Specifically, these compositions contained 1.4% or 1.5% w/w of polyvinyl alcohol and 2.0% or 2.8% w/w ammonium sulfate and were subjected to 2 weeks at 54° C. and 4 weeks at 50° C.
# [2] = Metribuzin solubility in salt solutions; format: physicochemical; conditions: saturated in ammonium sulfate, ammonium acetate and potassium citrate tribasic monohydrate solutions; FIG. 1
# Protocol: Metribuzin is partially soluble in water. Because of its partial solubility metribuzin grows crystals in aqueous solutions. It is a discovery of the present invention that, if water solubility of metribuzin is lowered, then crystal growth is inhibited or reduced. To determine if salts could lower the water solubility of metribuzin, metribuzin was added to the saturation point to several concentrations of ammonium sulfate, ammonium acetate and potassium citrate tribasic monohydrate solutions. Results can be seen in FIG. 1.
# [3] = variations of Composition 2, 54° C. 2 weeks and 50° C. 4 weeks
SMILES,"effect of additive on crystal growth and sieve residue [1, 3]","effect of additive on crystal growth and sieve residue ([1]; variations of Composition 3, 54° C. 2 weeks)","effect of additive on crystal growth and sieve residue ([1]; variations of Composition 4, 54° C. 2 weeks)",water solubility of metribuzin versus salt concentration [2]
N.N.O=S(=O)(O)O [Ammonium sulfate],reduced crystal growth to small crystals,reduced the amount of crystals isolated on the sieve substantially,inhibited crystal growth and lowered sieve residue,
CSc1nnc(C(C)(C)C)c(=O)n1N [metribuzin],,,,negatively correlated
O=C([O-])CC(O)(CC(=O)[O-])C(=O)[O-].[K+].[K+].[K+] [Potassium citrate],completely inhibited crystal growth,,,
